# Laboratory results taken from paper PMC5248581 (PeerJ, 2017).
# Residues, ends and D or L forms follow the SMILES beside them.
# Experiments:
# rat recombinant myc-B2R = biological target: T1, rat recombinant myc-B2R (Rattus norvegicus, UniProt P25023); assay: [3H]BK binding competition, rat myc-B2R; conditions: 3 nM [3H]BK, 0 °C, intact HEK 293a cells, peptidase inhibitors (captopril, PMSF); [95% C.L.]
# T1 construct: expressed in transfected cells
# T1 sequence (P25023 1-396): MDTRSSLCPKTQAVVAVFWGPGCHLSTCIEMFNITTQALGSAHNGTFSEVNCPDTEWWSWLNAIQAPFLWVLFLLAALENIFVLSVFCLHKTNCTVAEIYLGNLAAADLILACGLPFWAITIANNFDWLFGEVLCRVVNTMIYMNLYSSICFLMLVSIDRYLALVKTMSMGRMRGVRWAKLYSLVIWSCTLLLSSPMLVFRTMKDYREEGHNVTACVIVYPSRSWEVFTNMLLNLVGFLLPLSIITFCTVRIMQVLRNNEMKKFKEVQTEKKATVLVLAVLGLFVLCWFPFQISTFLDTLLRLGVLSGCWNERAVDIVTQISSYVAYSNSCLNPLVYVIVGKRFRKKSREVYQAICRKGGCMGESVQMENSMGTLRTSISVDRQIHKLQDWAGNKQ
# Experimental: (§1) The construction of myc-tagged B2R expression vectors containing the human and rat receptor sequence has been recently reported, as well as the derivation of HEK 293a cell lines that stably express each one of these constructions ([Charest-Morin et al., 2015]). The HEK 293a cell line was originally obtained from Sigma-Aldrich. Affinity of N-terminally extended kinins for the B2R was evaluated using a radioligand binding competition assay performed at 0 °C in the presence of peptidase inhibitors that included captopril and PMSF ([Houle et al., 2000]).
# (§2) Results are presented as means ± s.e.m.
# [1] = biological target: T2, human isolated umbilical vein (BK B2R; histamine H1R) (Homo sapiens, UniProt P30411); conditions: for EC50: read-out: Human umbilical vein EC50, contraction, cumulative, [95% C.L.]
# T2 sequence (P30411 1-391): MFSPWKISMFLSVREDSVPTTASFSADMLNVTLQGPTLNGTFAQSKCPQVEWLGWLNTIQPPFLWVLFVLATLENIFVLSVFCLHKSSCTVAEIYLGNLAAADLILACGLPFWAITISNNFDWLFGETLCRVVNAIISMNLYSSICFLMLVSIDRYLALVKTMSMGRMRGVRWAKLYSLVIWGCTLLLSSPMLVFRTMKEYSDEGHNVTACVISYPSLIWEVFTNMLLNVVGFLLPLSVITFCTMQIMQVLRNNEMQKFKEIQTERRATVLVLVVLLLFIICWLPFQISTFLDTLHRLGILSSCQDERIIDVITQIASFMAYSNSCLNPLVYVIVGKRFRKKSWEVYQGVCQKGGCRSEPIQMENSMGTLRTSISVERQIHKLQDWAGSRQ
# Excerpt: The institutional research ethics board (CHU de Québec) approved the anonymous use of human umbilical cord segments obtained after elective cesarean section deliveries (file number: 2012-323). Informed written consent was obtained from mothers.
# Results are presented as means ± s.e.m. Radioligand binding data were fitted by nonlinear regression to a one-site competition equation using a least-square method (Prism 5.0; GraphPad Software Inc., San Diego, CA, USA) and IC50 values calculated from this procedure. The same computer program was used to draw concentration-effect curves (least square fitting of sigmoidal dose–response equation with variable slope) and to derive contractile EC50 values. Data describing baseline values of heart rate and mean arterial blood pressure and hypotensive responses to peptides in anesthetized rats were assessed by using one-way analysis of variance (ANOVA) followed by the Dunnett’s test (repeated comparison with a common control). The effects of drugs on the hypotensive responses to each dose of MK were assessed by using ANOVA followed by the Dunnett’s test.
# [2] = biological target: T3, recombinant human myc-B2R (Homo sapiens, UniProt P30411); assay: [3H]BK binding competition, human myc-B2R; conditions: for IC50: 3 nM [3H]BK, 0 °C, intact HEK 293a cells, peptidase inhibitors (captopril, PMSF), [95% C.L.]
# T3 construct: expressed in transfected cells
# T3 sequence (P30411 1-391): T2 sequence (P30411 1-391)
# Experimental: as §1, §2
# [3] = Plasma level after injection; parameters: species or system rat; conditions: after injection at the highest tested dose in vivo
# [4] = LC-MS of MK incubated with human umbilical vein ring; assay type: in vitro ADME; conditions: MK (100 fmol analysed), 37 °C, 5 or 15 min
# Experimental: Synthetic MK (1 µM) was submitted to digestion in 2 ml of sterile-filtered Krebs solution in the presence of a freshly prepared ring of human umbilical vein (wet weight 25–37 mg). The tubes containing these materials were incubated at 37 °C for 5 or 15 min; the tissues were then removed and five volumes of cold ethanol (10 ml) were added to each tube. The tubes were incubated for 1 h on ice, centrifuged at 10,000 g to remove precipitated proteins and the kinin-containing supernatants were collected (procedure previously validated, [Raymond et al., 1995]). The supernatants were then completely evaporated to dryness in a Speedvac system and reconstituted in a small volume of water. Peptides were desalted on stage tip (C18), vacuum dried and then resuspended into 0.1% formic acid. One hundred fmol of each sample (starting MK quantity) was analyzed by mass spectrometry.
# Mass spectrometry: peptide samples were separated by online reversed-phase (RP) nanoscale capillary liquid chromatography (nanoLC) and analyzed by electrospray mass spectrometry (ES MS/MS). The experiments were performed with a Ekspert NanoLC425 (Eksigent) coupled to a 5600+ mass spectrometer (AB Sciex, Framingham, MA, USA) equipped with a nanoelectrospray ion source. Peptide separation took place on a picofrit column (Reprosil 3u, 120A C18, 15 cm × 0.075 mm internal diameter). Peptides were eluted with a linear gradient from 5–35% solvent B (acetonitrile, 0.1% formic acid) in 35 min, at 300 nL/min. Mass spectra were acquired using a data dependent acquisition mode using Analyst software version 1.7. […] Dynamic exclusion was set for a period of 3 s and a tolerance of 100 ppm
# Database searching: MGF peak list files were created using Protein Pilot version 5.0 software (Sciex) utilizing the Paragon and Progroup algorithms. MGF sample files were then analyzed using Mascot (Matrix Science, London, UK; version 2.5.1).
# Mascot was set up to search the MK sequence assuming that the digestion enzyme was non-specific. Mascot was searched with a fragment ion mass tolerance of 0.100 Da and a parent ion tolerance of 0.100 Da. Deamidation of asparagine and glutamine and oxidation of methionine were specified in Mascot as variable modifications. Scaffold (version Scaffold_4.7.1; Proteome Software Inc., Portland, OR, USA) was used to validate MS/MS based peptide and protein identifications.
# Data processing: Peak View 1.2.0.1 (Sciex) was used to extract the specific precursor masses and calculate the area under the curve. Extracted ion chromatoram (XIC) were generated from the TOF MS using a peak width of 0.05.
# human BK B1 receptor = conditions: ref Charest-Morin & Marceau, 2016; cited from earlier work
# Excerpt: MRGPRX2 has been recently described as a promiscuous receptor for cationic polymers and drugs that produce direct mast cell degranulation ([McNeil et al., 2015]). […] The contractile effect of MK on the human umbilical vein and ...
# rat mast cells = conditions: read-out: histamine release EC50; ref Devillier et al., 1985; cited from earlier work
# Excerpt: MK, encoded by two genes as five identical and cleavable amino acid sequences ([Chen et al., 2003]), is presumably a dissuasive toxin expressed in the skin of the toad Bombina maxima. Several such BK-related peptides of amphibian origin are believed to have co-evolved with the kinin receptors of the predatory species such as birds and snakes ([Xi et al., 2015]).
# [5] = biological target: T2, human isolated umbilical vein (BK B2R; histamine H1R); conditions: ref Gera et al., 2011; Charest-Morin et al., 2014; cited from earlier work
# Excerpt: The isolated umbilical vein has a low intrinsic sensitivity to endothelium-dependent vasodilation owing to its >20 layers of B2R-expressing smooth muscle cells ([Koumbadinga et al., 2010]; [Jean et al., 2016b]).
compound,measurement,setting,value
"NC(N)=NCCC[C@H](NC(=O)[C@H](Cc1ccccc1)NC(=O)[C@@H]1CCCN1C(=O)[C@H](CO)NC(=O)[C@H](Cc1ccccc1)NC(=O)CNC(=O)[C@@H]1CCCN1C(=O)[C@@H]1CCCN1C(=O)[C@@H](N)CCCN=C(N)N)C(=O)O [BK, bradykinin] (H-RPPGFSPFR-OH)",IC50,rat recombinant myc-B2R,0.0192 µM
"CC[C@H](C)[C@H](NC(=O)[C@H](CCCCN)NC(=O)[C@@H]1CCCN1C(=O)[C@H](CC(C)C)NC(=O)[C@@H](N)CC(=O)O)C(=O)N[C@@H](CC(N)=O)C(=O)N[C@@H](CCCNC(=N)N)C(=O)N[C@@H](CCCCN)C(=O)NCC(=O)N1CCC[C@H]1C(=O)N[C@@H](CCCNC(=N)N)C(=O)N1CCC[C@H]1C(=O)N1CCC[C@H]1C(=O)NCC(=O)N[C@@H](Cc1ccccc1)C(=O)N[C@@H](CO)C(=O)N1CCC[C@H]1C(=O)N[C@@H](Cc1ccccc1)C(=O)N[C@@H](CCCNC(=N)N)C(=O)O [MK, maximakinin] (H-DLPKINRKGPRPPGFSPFR-OH)",EC50,[1],0.145 µM
same,IC50,rat recombinant myc-B2R,0.12 µM
same,IC50,[2],7.56 µM
same,plasma concentration upper limit,[3],≤ 0.1 µM
same,consumption of MK,[4],consumed during the reaction
CC[C@H](C)[C@H](NC(=O)[C@H](CCCCN)NC(=O)[C@@H]1CCCN1C(=O)[C@H](CC(C)C)NC(=O)[C@@H](N)CC(=O)O)C(=O)N[C@@H](CC(N)=O)C(=O)N[C@@H](CCCNC(=N)N)C(=O)N[C@@H](CCCCN)C(=O)NCC(=O)N1CCC[C@H]1C(=O)N[C@@H](CCCNC(=N)N)C(=O)N1CCC[C@H]1C(=O)N1CCC[C@H]1C(=O)NCC(=O)N[C@@H](Cc1ccccc1)C(=O)N[C@@H](CO)C(=O)N1CCC[C@H]1C(=O)N[C@@H](Cc1ccccc1)C(=O)O [MK-des-Arg] (H-DLPKINRKGPRPPGFSPF-OH; N-terminus and C-terminus assumed),contractile effect,[1],negligible effects
same,EC50,[1],> 10 µM
same,B1R affinity,human BK B1 receptor,very low affinity
same,IC50,[2],> 10 µM
same,displacement of [3H]BK binding / affinity,[2]; human myc-B2R,did not significantly displace [^3H]BK binding
Lys-BK,EC50,rat mast cells,7.7 µM
Met-Lys-BK-Ser-Ser [BK prodrug prolonged at the C-terminus],apparent potency in presence of specific peptidase inhibitors,[5],decreased apparent potency
